# Measurements from patent US11827665B2, “Process for the manufacture of (2S,3S,4S,5R,6S)-3,4,5-trihydroxy-6-(((4AR,10AR)-7-hydroxy-1-propyl-1,2,3,4,4A,5,10,10A-octahydrobenzo[g]quinolin-6-yl)oxy)tetrahydro-2H-pyran-2-carboxylic acid” (H. Lundbeck A/S, priority 2019, dated 2023).
# What was measured:
# [1] = man, oral dosing; cited from earlier work
# Parkinson's disease = conditions: PD patients, intravenous (IV); cited from earlier work
# [2] = PK experiments in rats: plasma compound (I) after oral dosing of prodrugs; assay type: in vivo, Han Wistar rats; conditions: Wistar rats, doses equal to 287 μg/kg of compound (I)
# Description: Plasma was placed on water-ice following collection. Final storage at approximately −70° C.
# Mobile phase B: Acetonitrile. […] Flow rate 0.5 mL/min.
# The rats had unrestricted access to the diet.
# Mobile phase B: Acetonitrile+0.2% formic acid. […] Flow rate 0.3 mL/min.
# Dosing and blood sampling for compound (Ic): Han Wistar rats were supplied by Envigo, UK. […] The rats received a standard laboratory diet Teklad 2014C. The rats had unrestricted access to the diet. […] Rats were given 494 μg/kg (Ic).
# human 5-HT2B receptor = biological target: T1, human 5-HT2B receptor (Homo sapiens, UniProt P41595); assay: 5-HT2B agonist activity assay (IP1 production, HTRF); assay type: cell-based
# T1 construct: host or cells: CHO
# Description: Evaluation of the agonist activity of compounds (I), (Ia), (Ib), (Ic) and (Id) at the human 5-HT2B receptor was performed by Eurofins/Cerep (France) measuring the compound effects on inositol monophosphate (IP1) production using the HTRF detection method. Briefly, the human 5-HT2B receptor was expressed in transfected CHO cells. The cells were suspended in a buffer containing 10 mM Hepes/NaOH (pH 7.4), 4.2 mM KCl, 146 mM NaCl, 1 mM CaCl2, 0.5 mM MgCl2, 5.5 mM glucose and 50 mM LiCl, then distributed in microplates at a density of 4100 cells/well and incubated for 30 minutes at 37° C. in the presence of buffer (basal control), test compound or reference agonist. For stimulated control measurement, separate assay wells contained 1 μM 5-HT. Following incubation, the cells were lysed and the fluorescence acceptor (fluorophen D2-labeled IP1) and fluorescence donor (anti-IP1 antibody labeled with europium cryptate) were added. After 60 minutes at room temperature, the fluorescence transfer was measured at lambda (Ex) 337 nm and lambda (Em) 620 and 665 nm using a microplate reader (Rubystar, BMG). The IP1 concentration was determined by dividing the signal measured at 665 nm by that measured at 620 nm (ratio). The results were expressed as a percent of the control response to 1 μM 5-HT. The standard reference agonist was 5-HT, which was tested in each experiment at several concentrations to generate a concentration-response curve from which its EC50 value is calculated as described above for dopamine functional assays.
# [3] = test system: Parkinson's Disease animal models; conditions: WO 2010/097092; cited from earlier work
# rat hepatocytes [4] = assay: Incubation with rat hepatocytes; assay type: in vitro ADME
# Description: (§1) The cell concentration at incubation was 1×10^6 viable cells/mL. The incubations were performed in glass tubes at 37° C. with a total incubation volume of 3.5 mL and with duplicate incubations for each test item. The 3.5 mL of hepatocyte suspension was equilibrated for 10 minutes in a water bath set to 37° C. where after the incubations were initiated by adding 3.5 μL of a stock solution of the test item in DMSO (Dimethyl sulfoxide) and gently inverting the tubes. The final solvent concentration in the incubations was 0.1% DMSO. Samples of 600 μL were withdrawn from the incubations at the pre-determined time points of 0.25, 5, 15, 30 and 60 minutes after ensuring homogeneity of hepatocyte suspensions. The withdrawn volume was added to 1 mL Nunc cryotubes on wet ice containing 60 μL of ice-cold ascorbic acid (100 mg/mL) and 30 μL of ice cold 100 mM saccharic acid 1.4-lactone in 0.5 M citric acid. The tubes were mixed and 35 μL of a solution of ice cold 20% formic acid was added. The tubes were mixed thoroughly and stored at −80° C. awaiting analysis.
# human hepatocytes [5] = assay: Incubation with human hepatocytes; assay type: in vitro ADME
# Description: as §1
# rat locomotor activity = assay: Rat locomotor activity (hyperactivity) assay, open field, with PK/PD; assay type: in vivo, male CD rats
# Description: Animals were dosed at t=60 minutes after a 60-minutes habituation period in test chambers, and activity was monitored for 350 minutes thereafter.
# In total, 206 male CD rats (Charles River, Germany) weighing 200-250 grams (165-190 grams upon arrival) were used in the study. Animals were housed at a standard temperature (22±1° C.) and in a light-controlled environment (lights on from 7 am to […]) with ad libitum access to food and water. The experiment described below was performed in accordance with the standard operating procedures of Charles River Discovery Research Services Finland Ltd. and in accordance with the national Animal Experiment Board of Finland (Eläinkoelautakunta, ELLA) authority on animal testing.
# The test device is a square Plexiglass-arena (measuring 40×40×40 cm), in which the movement paths of the rats are recorded by an activity monitor (Med. Associates Inc.). Before the test period is initiated, rats are habituated to their test cage for 60 minutes. Upon completion of habituation, animals were treated with either compound or vehicle and placed back into the open field apparatus. The main test parameter measured is ambulatory distance (recorded in 5-minute segments). Overall time of measurement after receiving initial treatment was 360 minutes. Total follow up period in the study was 420 min, including 60 min of habituation.
# human hepatocytes [6] = conditions: WO 2010/097092; cited from earlier work
# rat hepatocytes [7] = conditions: WO 2010/097092; cited from earlier work
# T1 sequence (P41595 whole entry): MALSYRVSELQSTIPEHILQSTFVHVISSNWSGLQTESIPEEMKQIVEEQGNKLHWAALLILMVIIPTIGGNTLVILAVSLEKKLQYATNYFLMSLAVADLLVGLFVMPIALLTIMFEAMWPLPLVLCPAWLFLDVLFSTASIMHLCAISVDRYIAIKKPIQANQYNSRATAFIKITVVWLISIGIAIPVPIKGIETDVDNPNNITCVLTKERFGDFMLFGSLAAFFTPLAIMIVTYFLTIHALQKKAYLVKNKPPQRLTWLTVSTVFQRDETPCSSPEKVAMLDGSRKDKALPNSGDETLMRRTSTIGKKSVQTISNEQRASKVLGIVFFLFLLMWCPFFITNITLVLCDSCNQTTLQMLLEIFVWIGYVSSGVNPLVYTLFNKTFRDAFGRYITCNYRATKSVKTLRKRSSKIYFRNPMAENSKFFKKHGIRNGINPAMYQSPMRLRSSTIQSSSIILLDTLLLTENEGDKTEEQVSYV
structure (smiles),measurement,setting,value
CCCc1cc2c(s1)CN[C@@H]1CCc3cc(OC(C)=O)c(OC(C)=O)cc3[C@@H]21 [adrogolide],Oral bioavailability,[1],~4%
same,Antiparkinson efficacy,Parkinson's disease,comparable to that of L-DOPA
CCCN1CCC[C@@H]2Cc3c(ccc(OC(=O)C(C)(C)C)c3OC(=O)C(C)(C)C)C[C@H]21 [compound (Ic)],Plasma profile of compound (I) after oral dosing of the prodrug (in words),[2],extremely low
same,5-HT2B agonist effect @ 10 μM,"human 5-HT2B receptor; 10 μM, percent of control response to 1 μM 5-HT",−5% @ 10 μM
"CCCN1CCC[C@@H]2Cc3c(ccc(O)c3O)C[C@H]21 [compound (I), (4aR,10aR)-1-Propyl-1,2,3,4,4a,5,10,10a-octahydro-benzo[g]quinoline-6,7-diol]",Efficacy in animal models relevant for Parkinson's Disease,[3],effective
same,Conjugation of compound (I) in rat hepatocytes,rat hepatocytes [4],conjugated in rat and human hepatocytes to sulfate and glucuronide derivatives
same,Conjugation of compound (I) in human hepatocytes,human hepatocytes [5],conjugated in rat and human hepatocytes to sulfate and glucuronide derivatives
CN1CCc2cccc3c2[C@H]1Cc1ccc(O)c(O)c1-3 [apomorphine],Relationship between plasma concentration and hyperactivity,"rat locomotor activity; (Id) 100 μg/kg p.o. (plasma compound (I)), apomorphine 3 mg/kg s.c. (plasma apomorphine)",correlation between plasma concentrations of apomorphine and hyperactive behaviour
same,Locomotor activity: start of effect post-administration,"rat locomotor activity; (Id) 10 to 300 μg/kg p.o., apomorphine 3 mg/kg s.c., pramipexole 0.3 mg/kg s.c.",immediate
CCCN1CCC[C@@H]2Cc3c(ccc4c3OCO4)C[C@H]21 [compound (Ib)],Conversion of (Ib) to compound (I) in human hepatocytes,human hepatocytes [6],demonstrated
same,Plasma profile of compound (I) after oral dosing of the prodrug (in words),[2],early and high peak concentrations of compound (I)
same,Conversion of (Ib) to compound (I) in rat hepatocytes,rat hepatocytes [7],demonstrated
same,Efficacy in animal models relevant for Parkinson's Disease,[3],effective
same,5-HT2B receptor agonism (in words),human 5-HT2B receptor; example 6 and Table 2,agonist of the 5-HT2B receptor
CCCN1CCC[C@@H]2CC3=C(CCCC3=O)C[C@H]21 [compound (Ia)],Plasma profile of compound (I) after oral dosing of the prodrug (in words),[2],early and high peak concentrations of compound (I)
same,Efficacy in animal models relevant for Parkinson's Disease,[3],effective
same,5-HT2B agonist effect @ 30 μM,"human 5-HT2B receptor; 30 μM, percent of control response to 1 μM 5-HT",58%
